Experimental findings from PMC4295349, “Synthetic Antimicrobial Peptides Exhibit Two Different Binding Mechanisms to the Lipopolysaccharides Isolated from Pseudomonas aeruginosa and Klebsiella pneumoniae” (International Journal of Medicinal Chemistry, 2014) are described below.

Usually MBC stands for the smallest concentration meeting the test's criterion for killing. Read a low MBC as more potent killing. Usually MIC stands for the least concentration at which growth counts as inhibited.

Read-outs that look alike come from different tables or passages of the source. Where a SMILES comes first, the peptide text is derived from it. [ ]: non-standard residue; d: D form. ξ: configuration not given here. Oic = O=C(O)[C@@H]1C[C@@H]2CCCC[C@@H]2N1; Oic(3aξ,7aξ) = O=C(O)[C@@H]1CC2CCCCC2N1; Tic = O=C(O)[C@@H]1Cc2ccccc2CN1; βAla = NCCC(=O)O Where only a bound is given, the exact number is not on record here.

Assay [1] deals with K. pneumoniae BAMC 07-18. The class given is cell-based, Klebsiella pneumoniae. The text has this:
Table 3 In vitro minimum inhibitory concentration (MIC) and minimum bactericide concentration (MBC) activity against K. pneumonia and P. aeruginosa. | column: K. pneumoniae BAMC 07-18 / MBC (μg/mL)/(μM)

In assay [2] the test system is P. aeruginosa PAO1. The class given is cell-based, Pseudomonas aeruginosa. The text has this:
Table 3 In vitro minimum inhibitory concentration (MIC) and minimum bactericide concentration (MBC) activity against K. pneumonia and P. aeruginosa. | column: P. aeruginosa PAO1 / MBC (µg/mL)/(μM)

Assay [3] deals with LPS isolated from P. aeruginosa. As to the kind of experiment: 1H NMR of LPS on addition of AMP. Conditions: 1.0 mg/mL LPS + 0.1 mg AMP in 600 μL 150 mM perdeuterated sodium acetate buffer pH 5.64 in D2O, 298 K. The class given is binding, Pseudomonas aeruginosa. Here is the method: (§1) All ^1H experiments were conducted at 298 K on a Bruker Avance III 400 MHz NMR spectrometer equipped with a 5 mm direct observe Z-gradient broad-band probe. The spectral width was 4,000 Hz, 256 FIDs were collected per experiment. Data were processed using exponential multiplication with a line-broadening function of 5 Hz. Samples contained 1.0 mg/mL of the LPS in the presence of 0.1 mg of the AMP in 600 μL of a 150 mM perdeuterated sodium acetate buffer at a pH of 5.64 in D2O.

The test system of assay [4] is LPS isolated from K. pneumoniae. As to the kind of experiment: 1H NMR of LPS on addition of AMP. The class given is binding, Klebsiella pneumoniae. Conditions: 1.0 mg/mL LPS + 0.1 mg AMP in 600 μL 150 mM perdeuterated sodium acetate buffer pH 5.64 in D2O, 298 K. Here is the method: as §1
The test system of assay [5] is K. pneumoniae BAMC 07-18. Conditions: for in vitro inhibitory activity: against K. pneumoniae.
The subject of assay [6] is P. aeruginosa PAO1. The conditions noted are these: for in vitro inhibitory activity: against P. aeruginosa.
Setting [7] is: K. pneumoniae BAMC 07-18, light face value.
[8] abbreviates: P. aeruginosa PAO1, light face value.

In the case of `CC(C)C[C@H](NC(=O)[C@@H](N)CCCCN)C(=O)N1Cc2ccccc2C[C@H]1C(=O)N1C2CCCCC2C[C@H]1C(=O)N[C@@H](CCCCN)C(=O)NCC(=O)N1Cc2ccccc2C[C@H]1C(=O)N1C2CCCCC2C[C@H]1C(=O)N[C@@H](Cc1ccccc1)C(=O)NCC(=O)N1Cc2ccccc2C[C@H]1C(=O)N1C2CCCCC2C[C@H]1C(=O)N[C@@H](CCCCN)C(=O)NCC(=O)N1Cc2ccccc2C[C@H]1C(=O)N1C2CCCCC2C[C@H]1C(=O)N[C@@H](Cc1ccccc1)C(=O)NCC(=O)N1Cc2ccccc2C[C@H]1C(=O)N1C2CCCCC2C[C@H]1C(=O)N[C@@H](CCCCN)C(=O)NCC(=O)N1Cc2ccccc2C[C@H]1C(=O)N1C2CCCCC2C[C@H]1C(=O)N[C@@H](CCCCN)C(=O)N[C@@H](CCCCN)C(=O)N[C@@H](CCCCN)C(=O)N[C@@H](CCCCN)C(N)=O` (some centres unmarked) [AMP 79] (H-KL[Tic][Oic(3aξ,7aξ)]KG[Tic][Oic(3aξ,7aξ)]FG[Tic][Oic(3aξ,7aξ)]KG[Tic][Oic(3aξ,7aξ)]FG[Tic][Oic(3aξ,7aξ)]KG[Tic][Oic(3aξ,7aξ)]KKKK-NH2), the MBC in the assay on K. pneumoniae BAMC 07-18 [1] (BAMC 07-18) came to 13.9 µM; in the assay on K. pneumoniae BAMC 07-18 [1] (setting [7]), 50 µg/mL; against P. aeruginosa PAO1 [2] (setting [8]), 50 µg/mL; in the assay with P. aeruginosa PAO1 [2] (PAO1) it was 13.9 µM. Further, the “change of LPS 1H NMR resonances between 1.5 and 0.5 ppm (lipid A side chains)” value (shortened to “change … (lipid A side chains)”) in assay [3] is on record as “significant reduction in the peak heights”. For the same compound, in assay [4], the “change of LPS 1H NMR resonances in the region of 1.8 to 0.7 ppm (lipid A)” value (from here on “change of LPS 1H NMR resonances … (lipid A)”) is reported as “reduction in the signal intensity”. The minimum inhibitory concentration (MIC) against K. pneumoniae BAMC 07-18 [5] (BAMC 07-18) stood at 13.9 µM; against K. pneumoniae BAMC 07-18 [5] (setting [7]), 50 µg/mL; against P. aeruginosa PAO1 [6] (setting [8]), 50 µg/mL; against P. aeruginosa PAO1 [6] (PAO1), 13.9 µM. Further, the “in vitro inhibitory activity” value in the assay on K. pneumoniae BAMC 07-18 [5] and in the assay with P. aeruginosa PAO1 [6] was 50 µg/mL each time.

In the case of “H2N-KL-Tic-Oic-GK-Tic-Oic-F-Tic-Oic-GK-Tic-Oic-F-Tic-Oic-GK-Tic-Oic-KKKK-CONH2 [AMP 74]”, the “change … (lipid A side chains)” value in assay [3] is “significant reduction in the peak heights”. The “change of LPS 1H NMR resonances … (lipid A)” value in assay [4] is given as “reduction in the signal intensity”. Moreover, the “in vitro inhibitory activity” value in the assay on K. pneumoniae BAMC 07-18 [5] and in the assay with P. aeruginosa PAO1 [6] was at least 100 µg/mL throughout.

`CC(C)C[C@H](NC(=O)[C@@H](N)CCCCN)C(=O)N1Cc2ccccc2C[C@H]1C(=O)N1[C@H](C(=O)N[C@@H](CCCCN)C(=O)N2Cc3ccccc3C[C@H]2C(=O)N2[C@H](C(=O)NCC(=O)N[C@@H](Cc3ccccc3)C(=O)N3Cc4ccccc4C[C@H]3C(=O)N3[C@H](C(=O)N[C@@H](CCCCN)C(=O)N4Cc5ccccc5C[C@H]4C(=O)N4[C@H](C(=O)NCC(=O)N[C@@H](Cc5ccccc5)C(=O)N5Cc6ccccc6C[C@H]5C(=O)N5[C@H](C(=O)N[C@@H](CCCCN)C(=O)N6Cc7ccccc7C[C@H]6C(=O)N6[C@H](C(=O)N[C@@H](CCCCN)C(=O)N[C@@H](CCCCN)C(=O)N[C@@H](CCCCN)C(=O)N[C@@H](CCCCN)C(N)=O)C[C@@H]7CCCC[C@@H]76)C[C@@H]6CCCC[C@@H]65)C[C@@H]5CCCC[C@@H]54)C[C@@H]4CCCC[C@@H]43)C[C@@H]3CCCC[C@@H]32)C[C@@H]2CCCC[C@@H]21` [AMP 75] (H-KL[Tic][Oic]K[Tic][Oic]GF[Tic][Oic]K[Tic][Oic]GF[Tic][Oic]K[Tic][Oic]KKKK-NH2): the minimal bactericidal concentration (MBC) is 50 µg/mL in the assay on P. aeruginosa PAO1 [2] (setting [8]) and 14.6 µM in the assay with P. aeruginosa PAO1 [2] (PAO1). The “change … (lipid A side chains)” value in assay [3] is reported as “significant reduction in the peak heights”. The “change of LPS 1H NMR resonances … (lipid A)” value in assay [4] is given as “reduction in the signal intensity”. Further, the entries for the “in vitro inhibitory activity” value in the assay with K. pneumoniae BAMC 07-18 [5] and in the assay with P. aeruginosa PAO1 [6] were at least 100 µg/mL and 50 µg/mL, respectively. Further, the minimum inhibitory concentration (MIC) with P. aeruginosa PAO1 [6] (setting [8]) is 50 µg/mL; against P. aeruginosa PAO1 [6] (PAO1), 14.6 µM.

With `CC(=O)N[C@@H](CCCCN)C(=O)N[C@@H](CC(C)C)C(=O)N1Cc2ccccc2C[C@H]1C(=O)N1[C@H](C(=O)N[C@@H](CCCCN)C(=O)N2Cc3ccccc3C[C@H]2C(=O)N2[C@H](C(=O)N[C@@H](Cc3ccccc3)C(=O)N3Cc4ccccc4C[C@H]3C(=O)N3[C@H](C(=O)N[C@@H](CCCCN)C(=O)N4Cc5ccccc5C[C@H]4C(=O)N4[C@H](C(=O)N[C@@H](Cc5ccccc5)C(=O)N5Cc6ccccc6C[C@H]5C(=O)N5[C@H](C(=O)N[C@@H](CCCCN)C(=O)N6Cc7ccccc7C[C@H]6C(=O)N6[C@H](C(=O)N[C@@H](CCCCN)C(=O)N[C@@H](CCCCN)C(=O)N[C@@H](CCCCN)C(=O)N[C@@H](CCCCN)C(N)=O)C[C@@H]7CCCC[C@@H]76)C[C@@H]6CCCC[C@@H]65)C[C@@H]5CCCC[C@@H]54)C[C@@H]4CCCC[C@@H]43)C[C@@H]3CCCC[C@@H]32)C[C@@H]2CCCC[C@@H]21` [AMP 70] (Ac-KL[Tic][Oic]K[Tic][Oic]F[Tic][Oic]K[Tic][Oic]F[Tic][Oic]K[Tic][Oic]KKKK-NH2), the MBC against K. pneumoniae BAMC 07-18 [1] (BAMC 07-18) and in the assay on P. aeruginosa PAO1 [2] (PAO1) was over 100 µg/mL each time. Further, the “change … (lipid A side chains)” value in assay [3] was “significant reduction in the peak heights”. In addition, the “change of LPS 1H NMR resonances … (lipid A)” value in assay [4] is listed as “reduction in the signal intensity”. The minimal inhibitory concentration (MIC) against K. pneumoniae BAMC 07-18 [5] (BAMC 07-18) and in the assay on P. aeruginosa PAO1 [6] (PAO1) was over 100 µg/mL throughout. The “in vitro inhibitory activity” value in the assay with K. pneumoniae BAMC 07-18 [5] and with P. aeruginosa PAO1 [6] was at least 100 µg/mL throughout.

As to `CC(C)C[C@H](NC(=O)[C@@H](N)CCCCN)C(=O)N1Cc2ccccc2C[C@H]1C(=O)N1C2CCCCC2C[C@H]1C(=O)NCC(=O)N[C@@H](CCCCN)C(=O)N1Cc2ccccc2C[C@H]1C(=O)N1C2CCCCC2C[C@H]1C(=O)NCCC(=O)N[C@@H](Cc1ccccc1)C(=O)N1Cc2ccccc2C[C@H]1C(=O)N1C2CCCCC2C[C@H]1C(=O)NCC(=O)N[C@@H](CCCCN)C(=O)N1Cc2ccccc2C[C@H]1C(=O)N1C2CCCCC2C[C@H]1C(=O)NCCC(=O)N[C@@H](Cc1ccccc1)C(=O)N1Cc2ccccc2C[C@H]1C(=O)N1C2CCCCC2C[C@H]1C(=O)NCC(=O)N[C@@H](CCCCN)C(=O)N1Cc2ccccc2C[C@H]1C(=O)N1C2CCCCC2C[C@H]1C(=O)N[C@@H](CCCCN)C(=O)N[C@@H](CCCCN)C(=O)N[C@@H](CCCCN)C(=O)N[C@@H](CCCCN)C(N)=O` (some centres unmarked) [AMP 80] (H-KL[Tic][Oic(3aξ,7aξ)]GK[Tic][Oic(3aξ,7aξ)][βAla]F[Tic][Oic(3aξ,7aξ)]GK[Tic][Oic(3aξ,7aξ)][βAla]F[Tic][Oic(3aξ,7aξ)]GK[Tic][Oic(3aξ,7aξ)]KKKK-NH2), the MBC against K. pneumoniae BAMC 07-18 [1] (BAMC 07-18) was 13.8 µM; against K. pneumoniae BAMC 07-18 [1] (setting [7]) it was 50 µg/mL; with P. aeruginosa PAO1 [2] (setting [8]), 50 µg/mL; against P. aeruginosa PAO1 [2] (PAO1), 13.8 µM. In addition, the “change … (lipid A side chains)” value in assay [3] was “significant reduction in the peak heights”. For the same compound, in assay [4], the “change of LPS 1H NMR resonances … (lipid A)” value is recorded as “reduction in the signal intensity”. Further, the minimum inhibitory concentration (MIC) in the assay on K. pneumoniae BAMC 07-18 [5] (BAMC 07-18) was 13.8 µM; with K. pneumoniae BAMC 07-18 [5] (setting [7]), 50 µg/mL; in the assay on P. aeruginosa PAO1 [6] (setting [8]), 25 µg/mL; in the assay on P. aeruginosa PAO1 [6] (PAO1) it was 6.9 µM. The “in vitro inhibitory activity” value in the assay on K. pneumoniae BAMC 07-18 [5] and in the assay on P. aeruginosa PAO1 [6] was 50 µg/mL in each case.
